Data reported in patent US12702686B2, “Antimicrobial therapy” (priority 2021, dated 2026).
Where no end group is shown, it is not given here.

Columns and labels:
[1] = test system: Primary normal human keratinocytes (NHEK); assay: LDH release cytotoxicity in keratinocytes; format: cell-based; details: 24 h, increasing concentrations
Experimental: NHEKs (ThermoFisher) were cultured in EpiLife medium containing 60 μM CaCl2) (ThermoFisher) supplemented with 1× human keratinocyte growth supplement (ThermoFisher) and 1× Antibiotic Antimycotic (Millipore Sigma) at 37° C., 5% CO 2. All experiments performed on NHEKs were between passages 3 and 5 with cells at 70-80% confluency.

S. pseudintermedius ST71 = assay: Minimum inhibitory concentration, broth micro dilution; format: cell-based, Staphylococcus pseudintermedius; details: synthetic peptides, 18 h incubation
Experimental: MIC values were determined using a broth micro dilution method. Bacterial cells were grown to mid-late log phase, to an OD600 nm value of roughly 1.0 for each bacterial strain and then normalized to 1×10^7 CFU/mL. The PSMβ peptides or butanol extracts were dissolved in DMSO to a stock concentration of 10 mg/ml. The stock concentrations of antibiotics that were water-soluble were prepared with H2O or 100% ethanol if water-insoluble. The 1×10^7 CFU/ml bacterial cultures (10 μl) were aliquoted into 96-well microtiter plates and mixed with 95 μL of media with or without 2-fold dilutions of the conditioned supernatant, PSMβ peptides, butanol extracts or antibiotics and incubated for 16-18 h at 30° C. with shaking at 250 rpm. Growth inhibition was determined by measuring the OD600 nm readings of each well using a microplate reader (SpectraMax iD3, Molecular Devices). The MIC of each bacterial strain was determined by the lowest peptide concentration that inhibited more than 80% bacterial growth.

CC[C@H](C)[C@H](NC(=O)[C@H](Cc1c[nH]c2ccccc12)NC(=O)[C@H](CCCCN)NC(=O)[C@@H](NC(=O)[C@H](CC(C)C)NC(=O)[C@H](CC(=O)O)NC(=O)CNC(=O)[C@@H](NC(=O)[C@@H](NC(=O)[C@H](CO)NC(=O)[C@@H](NC(=O)[C@@H](NC(=O)[C@H](CC(=O)O)NC(=O)[C@H](C)NC(=O)[C@H](C)NC(=O)[C@H](CCSC)NC=O)[C@@H](C)CC)[C@@H](C)CC)[C@@H](C)O)[C@@H](C)CC)C(C)C)C(=O)N[C@H](C(=O)N[C@@H](CC(=O)O)C(=O)N[C@H](C(=O)N[C@H](C(=O)N[C@@H](CC(N)=O)C(=O)N[C@@H](CCCCN)C(=O)N[C@@H](Cc1ccccc1)C(=O)N[C@@H](CCCCN)C(=O)N[C@@H](CCCCN)C(=O)O)C(C)C)[C@@H](C)O)[C@@H](C)CC [PSMγ]
cytotoxicity by LDH release [1]: highly cytotoxic

Non-Formyl-MSKLTRVIVTSIMTVGFLTATLGLTAGNADAKLEGNGTLSQKQYQRLASQQF (H-MSKLTRVIVTSIMTVGFLTATLGLTAGNADAKLEGNGTLSQKQYQRLASQQF; listed as Staphylococcus felis) [EF-hand domain-containing peptide]
concentration at which S. pseudintermedius growth was inhibited (S. pseudintermedius ST71): > 200 µg/mL
